For one series, the system named is red blood cells. Kind of series: Lysis (hemolysis) assay. To be noted: human erythrocytes, 1 hour, 37 °C, 1% DMSO. It is filed as cell-based. How it is done:
The hemolysis test was performed following literature procedures.[14] Preparation of the erythrocyte suspension: human blood (6 mL) was transferred to a Falcon tube. The sample was then centrifuged at 10 000 rpm for 10 minutes. After centrifugation, the supernatant was discarded, and the cells were resuspended in 4 mL of 10 mM PBS. This centrifugation and resuspension process was repeated twice to remove plasma residues. Finally, the resulting cell suspension was diluted at a 1 : 20 ratio with 10 mM PBS. Hemolysis assay: a total of 500 μL of the prepared erythrocyte suspension was aliquoted into Eppendorf tubes according to the experimental conditions. The final DMSO concentration in each condition was adjusted to 1%. A 1% Triton™ X-100 solution was used as the positive control (100% hemolysis), while the negative control consisted of erythrocytes suspended in PBS with 1% DMSO (0% hemolysis). Samples were incubated at 37 °C with shaking at 200 rpm for 1 hour. Following incubation, the samples were centrifuged at 10 000 rpm for 10 minutes. Subsequently, 200 μL of the supernatant was collected and transferred to a 96-well plate. Absorbance was measured at 520 nm using a plate reader.

Series [1] relates to C. albicans. Description: MIC by broth microdilution (EUCAST). It is filed as cell-based, Candida albicans. Particulars: overnight 37 °C, read-out: Minimum inhibitory concentration (MIC90) C. albicans. The method, then:
(§1) The Gram-negative bacterial strain E. coli CECT 101 and P. aeruginosa ATCC 27853 were supplied by The Colección Española de Cultivos Tipo (CECT, Valencia, Spain) and the American Type Culture Collection (ATCC, Rockville, MD, USA). The Gram-positive bacterial strain S. aureus ATCC 25923, E. faecalis ATCC 29212 and the fungal strain C. albicans ATCC 1023 were supplied by The American Type Culture Collection (ATCC, Maryland, USA). Bacterial and yeast growth was carried out aerobically overnight at 35 °C in Mueller Hinton agar and Sabouraud dextrose agar, respectively (Scharlau, Spain).
(§2) The MIC of the compounds 1a–d, 2a–d, and 3a–d was determined by a broth microdilution method according to the EUCAST protocol. Briefly, 0.5 McFarland bacterial and fungal suspensions were prepared in Müeller Hinton broth (MHB) and Sabouraud dextrose broth (SDB) media, respectively. In a 96-well plate, serial dilutions of compounds 1a–d, 2a–d, 3a–d starting from 512 to 0 μg mL^−1 were made in MHB and SDB media, respectively. After incubation overnight at 37 °C, results were evaluated according to turbidity. Bacterial growth was determined by measuring absorbance at a wavelength of 600 nm and at 520 nm for fungi.[53–55]

The subject of another series is E. faecalis. Kind of series: MIC by broth microdilution (EUCAST). It is filed as cell-based, Enterococcus faecalis. Particulars: E. faecalis ATCC 29212, MHB, overnight 37 °C, read-out: Minimum inhibitory concentration (MIC90) E. faecalis. The method, then:
as §1, §2
In general terms: Broth dilution looks for growth in wells or tubes with falling amounts of substance.

Series [2] has as its system C. albicans. Description: Mitochondrial membrane depolarization, DiOC6(3) staining, flow cytometry. To be noted: 3.5 hours. Type of series: cell-based, Candida albicans. (A flow cytometer gives signals particle by particle.)
Description: Cultures of C. albicans were incubated with the fluorescent probe DiOC6(3), which typically accumulates in mitochondria due to the high membrane potential when the organelle works properly. Flow cytometry was used to measure the fluorescence intensity of the accumulated dye, establishing a baseline control (see “control” in Fig. 4).
To evaluate mitochondrial function in C. albicans by DiOC6 staining, the yeast cells were initially cultivated overnight in Sabouraud broth. The cultures were then transferred to a fresh medium, adjusting the OD600 to 0.1. […] The cultures were incubated for 3.5 hours with orbital shaking at 37 °C. After this period, the OD of each culture was standardized to 0.06 using the corresponding spent medium. Cells were subsequently stained with 0.3 μM DiOC6 for 20 minutes. Assays were performed in triplicate. Analysis was conducted using a BD Accuri™ C6 flow cytometer.
The test system of the next series is P. aeruginosa. Kind of series: MIC by broth microdilution (EUCAST). Particulars: Pseudomonas aeruginosa, ATCC27853; P. aeruginosa ATCC 27853, MHB, overnight 37 °C; read-out: Minimum inhibitory concentration (MIC90) P. aeruginosa. Type of series: cell-based. The method, then: as §1, §2
Series [3] relates to S. aureus. Kind of series: MIC by broth microdilution (EUCAST). To be noted: Staphylococcus aureus, ATCC25923; S. aureus ATCC 25923, MHB, overnight 37 °C; read-out: Minimum inhibitory concentration (MIC90) S. aureus. Type of series: cell-based. How it is done: as §1, §2
Series [4] relates to E. coli. Description: MIC by broth microdilution (EUCAST). It is filed as cell-based. Particulars: Escherichia coli, CECT101; E. coli CECT 101, MHB, overnight 37 °C; read-out: Minimum inhibitory concentration (MIC90) E. coli. The method, then:
as §1, §2

Series [5] deals with S. aureus. To be noted: cited from earlier work.
Series [6] relates to C. albicans. Particulars: cited from earlier work.
Series [7] deals with E. coli. To be noted: cited from earlier work.
Setting [8] is: Candida albicans, ATCC1023, C. albicans ATCC 1023, SDB.
[9] abbreviates: Enterococcus faecalis, ATCC29212.

≈ marks a conversion by molar mass, not a printed value. Like-named read-outs stand apart in the source and are kept apart here.

In the series with red blood cells, `c1ccc(-c2cc(-c3ccccc3)[n+](CCCCCCCCCC[n+]3c(-c4ccccc4)cc(-c4ccccc4)cc3-c3ccccc3)c(-c3ccccc3)c2)cc1` [1a] yielded a Lysis20 of 45 µM. Besides, the MIC90 was 2.2 µM in the series on C. albicans [1] (C. albicans ATCC 1023, SDB); 2.2 to 6.2 µM in the series with C. albicans [1] (setting [8]); 1.1 µM in the series with E. faecalis (setting [9]); 70 µM in the series with P. aeruginosa; 4.4 µM in the series with S. aureus [3]; 4.4 µM in the series on E. coli [4]. Also, in the series with C. albicans [2] (compound at 6 μM), the “DiOC6(3) fluorescence intensity relative to control” value is given as “about one-tenth”.
The compound `Brc1ccc(-c2cc(-c3ccccc3)[n+](CCCCCCCCCC[n+]3c(-c4ccccc4)cc(-c4ccc(Br)cc4)cc3-c3ccccc3)c(-c3ccccc3)c2)cc1` [1b] showed a Lysis20 with red blood cells of 20 µM. In addition, the MIC90 in the series with C. albicans [1] (setting [8]) turned out to be 118 µM; in the series on E. faecalis (setting [9]), 1 µM; with P. aeruginosa it was 30 µM; in the series with S. aureus [3], 7.6 µM; in the series with E. coli [4], 7.6 µM.
The compound `Brc1ccc(-c2cc(-c3ccccc3)cc(-c3ccc(Br)cc3)[n+]2CCCCCCCCCC[n+]2c(-c3ccc(Br)cc3)cc(-c3ccccc3)cc2-c2ccc(Br)cc2)cc1` [1c] returned a Lysis20 with red blood cells of 27 µM. Also, the MIC90 in the series on C. albicans [1] (setting [8]) was > 103 µM; in the series with E. faecalis (setting [9]), 13 µM; with P. aeruginosa, > 103 µM; with S. aureus [3], 13 µM; with E. coli [4], > 103 µM.
With `Brc1ccc(-c2cc(-c3ccc(Br)cc3)[n+](CCCCCCCCCC[n+]3c(-c4ccc(Br)cc4)cc(-c4ccc(Br)cc4)cc3-c3ccc(Br)cc3)c(-c3ccc(Br)cc3)c2)cc1` [1d], in the series with red blood cells, the Lysis20 was >256 µM. For the same compound, the MIC90 in the series with C. albicans [1] (C. albicans ATCC 1023, SDB) is >91 µM; in the series with C. albicans [1] (setting [8]), > 91 µM; in the series on E. faecalis it was 6.0 µM; in the series with E. faecalis (setting [9]), 6 µM; in the series with P. aeruginosa it was > 91 µM; in the series on S. aureus [3] it was 11 µM. Further, the MIC90 with E. coli [4] is 46 µM.
For `CCCCCCCCCCCC[n+]1c(-c2ccccc2)cc(-c2ccccc2)cc1-c1ccccc1` [2a], in the series on red blood cells, the Lysis20 was found to be 31 µM. The MIC90 with C. albicans [1] (C. albicans ATCC 1023, SDB) was 3.6 µM; in the series with C. albicans [1] (setting [8]), 2.2 to 6.2 µM; in the series with E. faecalis (setting [9]), 3.6 µM; with P. aeruginosa, > 112 µM; in the series on S. aureus [3], 28 µM; with E. coli [4] it was 28 µM.
As for `CCCCCCCCCCCC[n+]1c(-c2ccccc2)cc(-c2ccc(Br)cc2)cc1-c1ccccc1` [2b], the Lysis20 with red blood cells is 26 µM. Also, the MIC90 in the series with E. faecalis (setting [9]) was 24 µM; in the series with P. aeruginosa, > 200 µM; with S. aureus [3], 12 µM; with E. coli [4] it was 25 µM.
As to `CCCCCCCCCCCC[n+]1c(-c2ccc(Br)cc2)cc(-c2ccccc2)cc1-c1ccc(Br)cc1` [2c], in the series on red blood cells, the Lysis20 amounted to 26 µM. Further, the MIC90 in the series on C. albicans [1] (setting [8]) was 178 µM; in the series with E. faecalis (setting [9]), 11 µM; with P. aeruginosa, > 178 µM; in the series on S. aureus [3], 22 µM; with E. coli [4], 178 µM.
The compound `CCCCCCCCCCCC[n+]1c(-c2ccc(Br)cc2)cc(-c2ccc(Br)cc2)cc1-c1ccc(Br)cc1` [2d] came in with a Lysis20 in the series with red blood cells of 42 µM. The MIC90 is > 160 µM in the series with C. albicans [1] (setting [8]); 40 µM in the series on E. faecalis (setting [9]); > 160 µM in the series on P. aeruginosa; 40 µM in the series with S. aureus [3]; > 320 µM in the series on E. coli [4].
Regarding `CCC[n+]1c(-c2ccccc2)cc(-c2ccccc2)cc1-c1ccccc1` [3a], the Lysis20 in the series on red blood cells was >256 µM. The MIC90 is > 293 µM in the series with C. albicans [1] (setting [8]); > 293 µM with E. faecalis (setting [9]); > 293 µM in the series with P. aeruginosa; 146 µM with S. aureus [3]; > 585 µM with E. coli [4]. Besides, the “DiOC6(3) fluorescence intensity relative to control” value with C. albicans [2] (compound at 6 μM) was “normal DiOC6(3) accumulation”.
`CCC[n+]1c(-c2ccccc2)cc(-c2ccc(Br)cc2)cc1-c1ccccc1` [3b]: in the series with red blood cells, the Lysis20 is >256 µM. Further, the MIC90 with C. albicans [1] (setting [8]) is > 248 µM; with E. faecalis (setting [9]), 124 µM; with P. aeruginosa it was > 248 µM; with S. aureus [3] it was 31 µM; in the series on E. coli [4] it was > 496 µM.
For `CCC[n+]1c(-c2ccc(Br)cc2)cc(-c2ccccc2)cc1-c1ccc(Br)cc1` [3c], the Lysis20 with red blood cells is >256 µM. Further, the MIC90 is > 215 µM with C. albicans [1] (setting [8]); 54 µM with E. faecalis (setting [9]); > 215 µM in the series with P. aeruginosa; 54 µM in the series on S. aureus [3]; > 430 µM in the series with E. coli [4].
For `CCC[n+]1c(-c2ccc(Br)cc2)cc(-c2ccc(Br)cc2)cc1-c1ccc(Br)cc1` [3d], in the series with red blood cells, the Lysis20 is >256 µM. The MIC in the series on C. albicans [1] (setting [8]) is > 90 µM. The MIC90 in the series on E. faecalis (setting [9]) is 24 µM; with P. aeruginosa it was > 190 µM; in the series on S. aureus [3], 48 µM; in the series on E. coli [4], > 380 µM.
With `Cc1cc(N)c2ccccc2[n+]1CCCCCCCCCC[n+]1c(C)cc(N)c2ccccc21` [DQA, dequalinium chloride], the figures for the MIC with S. aureus [5], in the series with C. albicans [6] and with E. coli [7] were 2.4 µM, 5.5 µM and 121 µM, respectively.
Take `N#CC(C#N)=NNc1ccc(OC(F)(F)F)cc1` [FCCP, carbonyl cyanide-4-(trifluoromethoxy)phenylhydrazone, reference compound]: in the series on C. albicans [2] (compound at 30 μM), the “DiOC6(3) fluorescence intensity relative to control” value is recorded as “approximately half”.
`CCCCCCCCN=c1ccn(CCCCCCCCCCn2ccc(=NCCCCCCCC)cc2)cc1` [OCT, octenidine]: the MIC in the series with C. albicans [6] was 2.93 µM (≈ 1.61 µg/mL).
Consider `COc1ccc2cc3[n+](cc2c1OC)CCc1cc2c(cc1-3)OCO2` [berberine], for which the MIC with C. albicans [6] was 24 µM.
For the compound benzalkonium chloride [BAC], the MIC with S. aureus [5] is 4 µM; with E. coli [7] it was 63 µM.

(Values after publication PMC11969996, “Minimalistic bis-triarylpyridinium cations: effective antimicrobials against bacterial and fungal pathogens” (RSC Medicinal Chemistry, 2025).)
